Experimental findings from ChEMBL document CHEMBL1201862, “PubChem BioAssay data set” (2004) are described below.

Experiment in all cases: NCI anticancer screen, dose series, 48 h
Assay [1] concerns T47D.
Assay [2] concerns MDA-MB-435.
Assay [3] concerns NCI/ADR-RES.
Assay [4] concerns DU-145.
Assay [5] relates to XF498.
In assay [6] the test system is DMS-114.
Assay [7] concerns SK-OV-3.
Assay [8] concerns HT-29.
Assay [9] relates to HCT-116.
Assay [10] relates to DLD-1.
Assay [11] concerns M19-MEL.
Assay [12] has as its system HCT-15.
Assay [13] has as its system A549.
Assay [14] relates to SF-268.
Assay [15] has as its system DMS-273.
The subject of assay [16] is MCF7.
In assay [17] the test system is U-251.
The test system of assay [18] is SR.
Assay [19] relates to NCI-H460.
Assay [20] relates to PC-3.

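Dose response: 5 concentrations. Exposure: 48 h. Format: 96-well plates. Endpoint: linear interpolation; highest concentration if not reached. Here, GI50 denotes the concentration required for 50% inhibition of growth.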 Activity calls are given as the source filed them. Rule as the data show it: active = GI50 up to about 1.1 µM and inactive = higher.

As to `CN(C)CCCCN1CCc2c(n(C)c3ccccc23)C1=O`, the GI50 was 23.4 µM (inactive) in [1]; 17.5 µM (inactive) in assay [2]; 39.4 µM (inactive) in assay [3]; > 84.5 µM (inactive) in [4]; 20.7 µM (inactive) in assay [5]; > 80.7 µM (inactive) in assay [6]. Further, the GI50 was > 70 µM (inactive) in assay [7]; 24.3 µM (inactive) in [8]; 40.3 µM (inactive) in assay [9]; 60.4 µM (inactive) in assay [10]; 38 µM (inactive) in [11]; 39.4 µM in assay [12]. In addition, the GI50 in assay [13] was 64.7 µM (inactive); in [14] it was 48.1 µM (inactive); in [15], > 66.7 µM (inactive); in assay [16], 37.3 µM (inactive).

As for `CC[P+](C)(Cc1ccccc1)c1ccccc1` (centres undefined), the GI50 is 59 µM (inactive) in assay [17]; 24.7 µM (inactive) in [5]; 87.7 µM (inactive) in assay [6]; > 100 µM (inactive) in assay [7]; > 100 µM (inactive) in assay [8]; > 100 µM (inactive) in assay [9]. For the same molecule, the GI50 is > 100 µM (inactive) in assay [10]; 43.4 µM (inactive) in assay [11]; > 100 µM (inactive) in assay [18]; more than 100 µM in assay [12]; > 100 µM (inactive) in assay [13]; > 100 µM (inactive) in assay [15]. Further, the GI50 in assay [19] was > 100 µM (inactive).

With `O=C1C=C(c2ccccc2)NC1(c1ccccc1)c1cc(-c2ccccc2)[nH]c1-c1ccccc1` (centres undefined), the GI50 in assay [17] was > 100 µM (inactive); in [5], < 0.01 µM (active); in assay [6], > 100 µM (inactive); in assay [7], > 100 µM (inactive); in assay [8], > 100 µM (inactive); in [9], > 100 µM (inactive). Also, the GI50 was > 100 µM (inactive) in [10]; > 100 µM (inactive) in assay [11]; > 100 µM (inactive) in [18]; more than 100 µM in assay [12]; > 100 µM (inactive) in assay [13]; > 100 µM (inactive) in [15]. Besides, the GI50 in assay [19] is > 100 µM (inactive).

For `O=C1C(Cl)=C(Cl)C(=O)N1c1cccc(C(F)(F)F)c1`, the GI50 in [17] is > 100 µM (inactive); in assay [5] it was 3.77 µM (inactive); in [6] it was > 100 µM (inactive); in assay [7] it was > 100 µM (inactive); in [8], > 100 µM (inactive); in assay [9], > 100 µM (inactive). The GI50 in assay [10] was > 93.3 µM (inactive); in assay [11], > 100 µM (inactive); in [18] it was 35.9 µM (inactive); in [12] it was more than 100 µM; in assay [13] it was > 100 µM (inactive); in assay [14], > 100 µM (inactive). The GI50 in assay [15] and in [19] was > 100 µM (inactive) each time.

On to `Cn1c(=O)c2c(nc(C[N+]3([O-])CCOCC3)n2C)n(C)c1=O`, for which the GI50 in assay [17] was > 100 µM (inactive); in [5], > 100 µM (inactive); in assay [6], 0.45 µM (active); in assay [7], > 100 µM (inactive); in assay [8] it was > 100 µM (inactive); in assay [9], 7.98 µM (inactive). Also, the GI50 in assay [10] is > 100 µM (inactive); in assay [11], > 100 µM (inactive); in [18], > 100 µM (inactive); in [12], more than 100 µM; in assay [13], > 100 µM (inactive); in assay [14] it was > 100 µM (inactive). The GI50 in assay [15] and in [19] was > 100 µM (inactive) in each case.

On to `[N-]=[N+]=C1C(=O)C2CC3CC(C2)CC1C3`, for which the GI50 in assay [17], in [5], in assay [6], in assay [7], in assay [8] and in [9] was > 100 µM (inactive) throughout. Besides, the GI50 is > 100 µM (inactive) in [10]; > 100 µM (inactive) in [11]; > 100 µM (inactive) in assay [18]; more than 100 µM in [12]; > 100 µM (inactive) in assay [13]; > 100 µM (inactive) in assay [14]. Also, the GI50 in assay [15] and in assay [19] was > 100 µM (inactive) throughout.

As to `CC1(C)Cc2c(oc3ncnc(N)c23)CS1`, the GI50 in [17], in [5], in assay [6], in [7], in [8] and in assay [9] was > 100 µM (inactive) in each case. In addition, the GI50 in [10] was > 100 µM (inactive); in assay [11] it was > 100 µM (inactive); in assay [18], > 100 µM (inactive); in [12], more than 100 µM; in assay [13], > 100 µM (inactive); in [14], > 100 µM (inactive). For the same molecule, the GI50 in assay [15] and in assay [19] was > 100 µM (inactive) throughout.

For the molecule `OC(c1ccccc1Br)(c1ccccc1Br)C(F)(F)F`, the GI50 was 18.6 µM (inactive) in assay [17]; 23.1 µM (inactive) in assay [5]; 20.8 µM (inactive) in assay [6]; 36.5 µM (inactive) in assay [7]; 14.7 µM (inactive) in assay [8]; 19.7 µM (inactive) in assay [9]. The GI50 in [10] is 37.5 µM (inactive); in assay [11], 23.9 µM (inactive); in [18], 24.6 µM (inactive); in assay [12], 30.4 µM; in [13], 34.1 µM (inactive); in [14], 20.9 µM (inactive). For the same molecule, the results for the GI50 in [15] and in assay [19] were 20.3 µM (inactive) and 27.7 µM (inactive), respectively.

With `Cc1c(C(=O)/C=C/c2ccc3c(c2)OCO3)[n+]([O-])c2ccccc2[n+]1[O-]`, the GI50 in [17] is 30.3 µM (inactive); in assay [5] it was 25.8 µM (inactive); in assay [6], 21.4 µM (inactive); in assay [7], 21.3 µM (inactive); in assay [8] it was 26.4 µM (inactive); in assay [9] it was 29.4 µM (inactive). Also, the GI50 was 38.6 µM (inactive) in assay [10]; 35.2 µM (inactive) in assay [11]; 30.3 µM (inactive) in [18]; 32.7 µM (inactive) in assay [13]; 52.6 µM (inactive) in assay [14]; 22.6 µM (inactive) in [15]. In addition, the GI50 in assay [19] was 28.4 µM (inactive).

Consider `COc1ccc(CC(C#N)c2cc(OC)c(OC)c(OC)c2)cc1` (centres undefined), for which the GI50 in assay [17] is 0.0568 µM (active); in assay [2] it was < 0.01 µM (active); in assay [3], 0.0185 µM (active); in [4] it was 0.0422 µM (active); in assay [5], 0.356 µM (active); in assay [6] it was 0.0418 µM (active). In addition, the GI50 in assay [7] is 0.0474 µM (active); in [8], 0.029 µM (active); in assay [9], 0.0466 µM (active); in [10], 0.11 µM (active); in assay [11], 0.0676 µM (active); in [20], 14 nM (active). The GI50 in assay [18] was 0.0206 µM (active); in [12] it was 0.0276 µM; in assay [13] it was 0.0525 µM (active); in assay [14], 0.204 µM (active); in assay [15] it was 0.0303 µM (active); in [19], 0.0409 µM (active). The GI50 in [16] was < 0.016 µM (active).
